One experiment deals with T1, USP7 (Homo sapiens, UniProt Q93009, C315A).
T1 construct: 0.25 nM His-His-USP7 (aa208-560, |C315A|) was incubated with compound; His-His (N)
The experiment in a line: Inhibition of USP7 by Fluorescence Intensity (FLINT) readings, Ubiquitin-Rhodamine-110 substrate. It counts as biochemical. The note with it: 0.25 nM His-His-USP7 (aa208-560), 60 minutes at 30° C. preincubation; Ki determined from IC50 according to Cer et al. In outline: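 His-tagged USP7 (aa208-560, C315A), 0.25 nM, preincubated with compound 60 min at 30 °C in 100 mM Bicine pH 8.0, 0.01% Triton X-100, 1 mM TCEP, 10% DMSO. Ubiquitin-Rhodamine-110 (50 nM or 4 μM) added; kinetic fluorescence (Ex 485/Em 535 nm) over 21 min; IC50 from 11-point curves, Ki derived from IC50.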

Experiment [1] has as its system Z138 mantle cell lymphoma tumour cell lines. The experiment in a line: In vitro cytotoxicity, MTT assay. It counts as cell-based. The settings on record: Z138 cells, exposed to the test compounds for 96 hours. In outline: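 Z138 cells exposed to compounds for 96 hours, then MTT added for 4 hours. Formazan absorbance at 540 nm serves as the measure of viable cell number.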

T1 sequence (Q93009 208-560 C315A): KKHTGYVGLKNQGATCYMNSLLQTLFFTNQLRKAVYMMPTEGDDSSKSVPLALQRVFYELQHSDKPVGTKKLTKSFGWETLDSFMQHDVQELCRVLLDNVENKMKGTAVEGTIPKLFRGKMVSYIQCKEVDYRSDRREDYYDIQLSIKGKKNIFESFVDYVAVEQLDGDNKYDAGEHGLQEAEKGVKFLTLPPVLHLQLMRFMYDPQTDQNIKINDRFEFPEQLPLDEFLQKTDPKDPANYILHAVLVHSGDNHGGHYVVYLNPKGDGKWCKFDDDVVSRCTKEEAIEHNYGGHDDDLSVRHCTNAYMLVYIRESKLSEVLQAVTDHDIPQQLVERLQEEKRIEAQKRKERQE

For `CN(C(=O)N1CC[C@@H](C(=O)N2CCC(O)(Cn3cnc(Oc4ccc(F)cc4)c(N)c3=O)CC2)[C@H](c2ccccc2)C1)c1ccccc1` [Example 78, (3R,4R)-4-[4-[[5-amino-4-(4-fluorophenoxy)-6-oxo-pyrimidin-1-yl]methyl]-4-hydroxy-piperidine-1-carbonyl]-N-methyl-N,3-diphenyl-piperidine-1-carboxamide], the affinity on USP7, expressed as Ki, was 58 nM. This molecule also gave an IC50 in experiment [1] (Homo sapiens, Z-138) of 15 nM.
`Cn1cnc2ccc(C(=O)N3CC[C@@H](C(=O)N4CCC(O)(Cn5cnc(Oc6ccc(F)cc6)c(N)c5=O)CC4)[C@H](c4ccccc4)C3)cc2c1=O` [Example 123, 6-[(3R,4R)-4-(4-({5-amino-4-(4-fluorophenoxy)-6-oxopyrimidin-1(6H)-yl]methyl)-4-hydroxypiperidine-1-carbonyl)-3-phenylpiperidine-1-carbonyl]-3-methylquinazolin-4(3H)-one] gave a Ki at USP7 of 6.92 nM. This molecule gave an IC50 in experiment [1] (Homo sapiens, Z-138) of 43.2 nM.
At USP7, `Cc1ccc(C2(N3CC[C@@H](C(=O)N4CCC(O)(Cn5cnc(Oc6ccc(F)cc6)c(N)c5=O)CC4)[C@H](c4ccccc4)C3)COC2)cc1` [Example 155] displayed a Ki of 97 nM. In addition, 588 nM corresponded to half-maximal inhibition in experiment [1] (IC50).
Molecule `Nc1c(Oc2ccc(F)cc2)ncn(CC2(O)CCN(C(=O)[C@@H]3CCN(C(=O)c4cncc(-c5ccccc5)c4)C[C@H]3c3ccccc3)CC2)c1=O` [Example 35, 5-amino-6-(4-fluorophenoxy)-3-({4-hydroxy-1-[(3R,4R)-3-phenyl-1-(5-phenylpyridine-3-carbonyl)piperidine-4-carbonyl]piperidin-4-yl}methyl)pyrimidin-4(3H)-one] had a Ki at USP7 of 11.3 nM. In addition, in experiment [1] (Homo sapiens, Z-138), it took 5 nM to reach half-maximal inhibition (IC50).
At USP7, `Nc1c(Oc2ccc(F)cc2)ncn(CC2(O)CCN(C(=O)[C@@H]3CCN(C(=O)Nc4ccccc4)C[C@H]3c3ccccc3)CC2)c1=O` [Example 76, (3R,4R).4-[4-[[5-amino-4-(4-fluorophenoxy)-6-oxo-pyrimidin-1-yl]methyl]-4-hydroxy-piperidine-1-carbonyl]-N,3-diphenyl-piperidine-1-carboxamide] gave a Ki of 17 nM. In experiment [1] (Homo sapiens, Z-138), the IC50 was 22 nM.
At USP7, `Cc1nc(C2CCCCC2)sc1C(=O)N1CC[C@@H](C(=O)N2CCC(O)(Cn3cnc(Oc4ccc(F)cc4)c(N)c3=O)CC2)[C@H](c2ccccc2)C1` [Example 158] came in with a Ki of 10.7 nM. Also, 5.24 nM corresponded to half-maximal inhibition in experiment [1] (Homo sapiens, Z-138) (IC50).
`Nc1c(Oc2ccc(F)cc2)ncn(CC2(O)CCN(C(=O)[C@@H]3CCN(C(=O)Nc4cccc(C(F)(F)F)c4)C[C@H]3c3ccccc3)CC2)c1=O` [Example 81, (3R,4R)-4-(4-{15-amino-4-(4-fluorophenoxy)-6-oxopyrimidin-[(6H)-yl]methyl}-4-hydroxypiperidine-1-carbonyl)-3-phenyl-N-[3-(trifluoromethyl)phenyl]piperidine-1-carboxamide] displayed a Ki at USP7 of 44 nM. The IC50 in experiment [1] (Homo sapiens, Z-138) was found to be 5.1 nM.
`Cc1ccc(-c2nc(C)c(C(=O)N3CC[C@@H](C(=O)N4CCC(O)(Cn5cnc(Oc6ccc(CN)cc6)c(N)c5=O)CC4)[C@H](c4ccccc4)C3)s2)cn1` [Example 131] showed a Ki at USP7 of 0.064 nM. Moreover, the IC50 in experiment [1] (Homo sapiens, Z-138) is 5.3 nM.
The molecule `COc1cc(Oc2ncn(C[C@@]3(O)CCN(C(=O)[C@@H]4CCN(Cc5ccnc(C)n5)C[C@H]4c4ccccc4)CC3(F)F)c(=O)c2N)ccc1F` [Example 149] registered a Ki at USP7 of 14 nM. In experiment [1] (Homo sapiens, Z-138), this molecule displayed an IC50 of 24.1 nM.
The like results for `COc1cc(Oc2ncn(C[C@@]3(O)CCN(C(=O)[C@@H]4CCN(C(=O)c5sc(-c6ccc(C)nc6)nc5C)C[C@H]4c4ccccc4)CC3(F)F)c(=O)c2N)ccc1F` [Example 179] were, in that order, 5.58 nM and 1.34 nM.
In turn, `Nc1c(Oc2ccc(F)cc2)ncn(C[C@@]2(O)CCN(C(=O)[C@@H]3CCN(Cc4ccnc(Cl)n4)C[C@H]3c3ccccc3)CC2(F)F)c1=O` [Example 160] yielded a Ki on USP7 of 16.9 nM. Moreover, the IC50 in experiment [1] (Homo sapiens, Z-138) is 6.47 nM.
In turn, `COc1cc(Oc2ncn(C[C@@]3(O)CCN(C(=O)[C@@H]4CCN(Cc5cnccn5)C[C@H]4c4ccccc4)CC3(F)F)c(=O)c2N)ccc1F` [Example 213, 5-amino-3-[[(4S)-3,3-difluoro-4-hydroxy-1-[(3R,4R)-3-phenyl-1-(pyrazin-2-ylmethyl)piperidine-4-carbonyl]-4-piperidyl]methyl]-6-(4-fluoro-3-methoxy-phenoxy)pyrimidin-4-one] showed a Ki at USP7 of 36.4 nM. In experiment [1] (Homo sapiens, Z-138), this molecule gave a 50% inhibitory concentration (IC50) of 15.6 nM.
As to `Nc1c(Oc2ccc(F)cc2)ncn(CC2(O)CCN(C(=O)[C@@H]3CCN(C(=O)Nc4ccc(F)cc4)C[C@H]3c3ccccc3)CC2)c1=O` [Example 84, (3R,4R)-4-[4-[[5-amino-4-(4-fluorophenoxy)-6-oxo-pyrimidin-1-yl]methyl]-4-hydroxy-piperidine-1-carbonyl]-N-(4-fluorophenyl)-3-phenyl-piperidine-1-carboxamide], on USP7, the Ki came out at 21 nM. Further, half-maximal inhibition in experiment [1] (Homo sapiens, Z-138) (IC50) was put at 18 nM.
Turning to `Nc1c(Oc2ccc(F)cc2)ncn(CC2(O)CCN(C(=O)[C@@H]3CCN(S(=O)(=O)c4ccccc4)C[C@H]3c3ccccc3)CC2)c1=O` [Example 30, 5-amino-3-({1-[(3R,4R)-1-(benzenesulfonyl)-3-phenyl-piperidine-4-carbonyl]A-hydroxy-4-piperidyl]methyl]-6-(4-fluorophenoxy)pyrimidin-4-one], the Ki on USP7 came to 28.4 nM. In addition, the concentration for half-maximal inhibition (IC50) in experiment [1] (Homo sapiens, Z-138) was 9.1 nM.
In turn, `Nc1c(Oc2ccc(F)cc2)ncn(CC2(O)CCN(C(=O)[C@@H]3CCN(C4(c5ccccc5Cl)COC4)C[C@H]3c3ccccc3)CC2)c1=O` [Example 140, 5-amino-3-[[1-((3R,4R)-1-[3-(2-chlorophenyl)oxetan-3-yl]-3-phenyl-piperidine-4-carbonyl]-4-hydroxy-4-piperidyl]methyl]-6-(4-fluorophenoxy)pyrimidin-4-one] had a Ki at USP7 of 12 nM. For the same molecule, in experiment [1] (Homo sapiens, Z-138), the IC50 came out at 20 nM.
Regarding `Nc1c(Oc2ccc(F)cc2)ncn(CC2(O)CCN(C(=O)[C@@H]3CCN(C4(c5ccccc5)COC4)C[C@H]3c3ccccc3)CC2)c1=O` [Example 108, 5-amino-6-(4-fluorophenoxy)-3-[[4-hydroxy-1-((3R,4R)-3-phenyl-1-(3-phenyloxetan-3-yl)piperidine-4-carbonyl]-4-piperidyl]methyl]pyrimidin-4-one], at USP7, the Ki came to 63 nM. In experiment [1] (Homo sapiens, Z-138), this molecule showed an IC50 of 50 nM.
Regarding `Nc1c(Oc2ccc(F)cc2)ncn(CC2(O)CCN(C(=O)[C@@H]3CCN(C(=O)c4cncc(-n5cccc5)c4)C[C@H]3c3ccccc3)CC2)c1=O` [Example 163, 5-amino-6-(4-fluorophenoxy)-3-[[4-hydroxy-1-[(3R,4R)-3-phenyl-1-(5-pyrrol-1-ylpyridine-3-carbonyl)piperidine-4-carbonyl]-4-piperidyl]methyl]pyrimidin-4-one], the affinity at USP7 corresponds to a Ki of 9.76 nM. The molecule further returned a half-maximal inhibitory concentration (IC50) in experiment [1] (Homo sapiens, Z-138) of 1.41 nM.
`Nc1c(Oc2ccc(F)cc2)ncn(CC2(O)CCN(C(=O)[C@@H]3CCN(C(=O)c4sc(Br)c5c4OCCO5)C[C@H]3c3ccccc3)CC2)c1=O` [Example 67] displayed a Ki at USP7 of 14 nM. This molecule came in with an IC50 in experiment [1] of 27.8 nM.
Regarding `Cc1nccc(CN2CC[C@@H](C(=O)N3CC[C@](O)(Cn4cnc(Oc5ccc(F)cc5)c(N)c4=O)C(F)(F)C3)[C@H](c3ccccc3)C2)n1` [Example 13, 5-amino-3-{[(4S)-3,3-difluoro-4-hydroxy-1-{(3R,4R)-1-[(2-methylpyrimidin-4-yl)methyl]-3-phenylpiperidine-4-carbonyl]piperidin-4-yl]methyl)-6-(4-fluorophenoxy)pyrimidin-4(31)-one], at USP7, the Ki was 23.3 nM. The molecule also gave an IC50 in experiment [1] (Homo sapiens, Z-138) of 10.6 nM.

These data come from patent publication US20210355106A1, “NEW AMINO-PYRIMIDONYL-PIPERIDINYL DERIVATIVES, A PROCESS FOR THEIR PREPARATION AND PHARMACEUTICAL COMPOSITIONS CONTAINING THEM” (LES LABORATOIRES SERVIER, priority 2018, published 2021).
